Here are results for 3 compounds from patent EP0248231B1, “Pharmacologically active peptides” (Brantl, Victor, Dr. med., Dipl.-Chem., priority 1986, dated 1993).

The subject of the experiment is plexus myentericus/ Längsmuskel-Präparat des Meerschweinchenileums (GPI). The experiment can be described thus: Inhibition of electrically induced contraction of the myenteric plexus/longitudinal muscle preparation of guinea pig ileum (GPI). The format is cell-based. The settings on record: means of 4-6 determinations; standard deviation below 14 %; read-out: GPI: Konzentration, die notwendig ist, die elektrisch induzierte Kontraktion des Meerschweinchen-Darm-Präparates (GPI) um 50 % zu hemmen (IC₅₀-Wert). An excerpt: Die beiden Substanzen zeigen spezifische opiatartige Wirkungen am elektrisch stimulierten plexus myentericus/ Längsmuskel-Präparat des Meerschweinchenileums (GPI), Methode: Schulz und Goldstein, J. Pharmacol. Exptl. Ther. 183, 400, 1972. Die Ergebnisse sind in Tabelle 1 aufgeführt.
Tabelle 1. Opiatartige Wirkungen zweier erfindungsgemäßer Peptide; die Zahlen geben diejenige Konzentration (µM) an, die notwendig ist, die elektrisch induzierte Kontraktion des Meerschweinchen-Darm-Präparates (GPI) um 50 % zu hemmen (IC₅₀-Wert). Die Zahlen sind Mittelwerte aus 4-6 Bestimmungen; die Standardabweichung von den Mittelwerten ist kleiner als 14 %. Die Hemmungen des GPI sind mit dem spezifischen Opioid-Antagonisten Naloxon aufhebbar bzw. bei Vorbehandlung blockierbar. (Endkonzentration des Naloxons im Organbad 0,5 µM).

Residues, ends and D or L forms follow the SMILES beside them.

Turning to `Oc1ccc2c3c1O[C@H]1[C@@H](O)C=C[C@H]4[C@@H](C2)NCC[C@@]341` [Normorphin], the IC50 amounted to 0.1 µM.
With `C[C@@H](O)[C@H](NC(=O)[C@H](Cc1c[nH]c2ccccc12)NC(=O)[C@@H]1CCCN1C(=O)[C@@H](N)Cc1ccc(O)cc1)C(=O)O` [Tyr-Pro-Trp-Thr, H-Tyr-Pro-Trp-Thr-OH] (H-YPWT-OH) the figure was 45.2 µM; with “H-YPWTQ-OH [Tyr-Pro-Trp-Thr-Gln, H-Tyr-Pro-Trp-Thr-Gln-OH]”, 46.1 µM.
